According to paper PMC11532403 (Signal Transduction and Targeted Therapy, 2024):
pIC50: −log10 of the molar value. Read-outs that look alike come from different tables or passages of the source.

How the values were obtained:
[1] = Phase 1 trial: plasma pharmacokinetics; format: in vivo; settings: human, oral; for MRT inf: read-out: MRTINF_obs mean; for AUC(0-t): read-out: AUC0–12 h mean
Excerpt: Serial plasma samples were also collected in each patient after the first dose and during multiple-dose administration on Cycle 1 Day 28.

TT cells (RET^C634W) = test: Proliferation assay (CellTiter-Glo); format: cell-based; settings: Homo sapiens, 72 hours, read-out: Cellular Viability IC50
Protocol: (§1) The cell lines HEK293T, Baf3, TT cell and NIH-3T3 were obtained from the Cell Resource Center, Peking Union Medical College (PCRC). […] All stably transformed BaF3 cells were cultured in RPMI 1640 without IL‐3. […] Cells were cultured at 37 °C under 5 % CO2 and high humidity conditions. […] Cell viability was assessed by luminescence using CellTiter-Glo 2.0 assay (Promega). IC50 curve fitting was performed using GraphPad Prism 9.0.

NIH-3T3 cells = test: Proliferation assay (CellTiter-Glo); format: cell-based, murine; settings: Mus musculus, NIH3T3; NIH-3T3 (RET-negative); read-out: Cellular Viability IC50
Protocol: as §1

respiratory system = test: Respiratory safety pharmacology; format: in vivo, SD rats; settings: single oral, males 15-40, females 30-80 mg/kg
Protocol: All rats were evaluated by cage-side observation, detailed clinical observation, body weight and respiratory parameters (tidal volume, minute tidal volume and respiratory rate).

[2] = Pharmacokinetics in beagles; format: in vivo; settings: both sexes, beagle, dog, plasma, po
Excerpt: Absorption and elimination in the body may both gradually tend towards saturation. In addition, there was no statistically significant difference in plasma pharmacokinetic parameters between female and male beagles administered SY-5007 by gavage alone.

[3] = Plasma protein binding, rapid equilibrium dialysis; format: in vitro ADME; settings: rat, read-out: Plasma protein binding rate (converted)
[4] = Plasma protein binding, rapid equilibrium dialysis; format: in vitro ADME; settings: dog, read-out: Plasma protein binding rate (converted)
CYP2C9 = target: T1, CYP2C9 (Homo sapiens, UniProt P11712); test: CYP inhibition in human liver microsomes; format: in vitro ADME; settings: 0.5-25 μM
T1 construct: substrates of different CYP450 enzymes in mixed human liver microsomes; from tissue; host or cells: mixed human liver microsomes

CYP3A4 = target: T2, CYP3A4 (Homo sapiens, UniProt P08684); test: CYP inhibition in human liver microsomes; format: in vitro ADME; settings: mixed human liver microsomes, 0.5-25 μM
T2 construct: substrates of different CYP450 enzymes in mixed human liver microsomes; from tissue; host or cells: mixed human liver microsomes

CYP2D6 = target: T3, CYP2D6 (Homo sapiens, UniProt P10635); test: CYP inhibition in human liver microsomes; format: in vitro ADME; settings: 0.5-25 μM
T3 construct: substrates of different CYP450 enzymes in mixed human liver microsomes; from tissue; host or cells: mixed human liver microsomes

[5] = Acute toxicity, single oral gavage; format: in vivo; settings: SD, rat, in vivo, oral, read-out: MTD, single dose
SD rats = test: Acute toxicity, single oral gavage; format: in vivo; settings: acute toxicity study in SD rats
[6] = test system: Chinese hamster ovary cells; test: In vitro chromosome aberration test; format: cell-based
[7] = 40 mg, Cycle 1 Day 28, 40 mg BID (n = 3)
[8] = 80 mg, Cycle 1 Day 28, 80 mg BID (n = 3)
[9] = 120 mg, Cycle 1 Day 28, 120 mg BID (n = 3)
[10] = 200 mg, Cycle 1 Day 1, 200 mg BID (n = 9)

T1 sequence (P11712 whole entry): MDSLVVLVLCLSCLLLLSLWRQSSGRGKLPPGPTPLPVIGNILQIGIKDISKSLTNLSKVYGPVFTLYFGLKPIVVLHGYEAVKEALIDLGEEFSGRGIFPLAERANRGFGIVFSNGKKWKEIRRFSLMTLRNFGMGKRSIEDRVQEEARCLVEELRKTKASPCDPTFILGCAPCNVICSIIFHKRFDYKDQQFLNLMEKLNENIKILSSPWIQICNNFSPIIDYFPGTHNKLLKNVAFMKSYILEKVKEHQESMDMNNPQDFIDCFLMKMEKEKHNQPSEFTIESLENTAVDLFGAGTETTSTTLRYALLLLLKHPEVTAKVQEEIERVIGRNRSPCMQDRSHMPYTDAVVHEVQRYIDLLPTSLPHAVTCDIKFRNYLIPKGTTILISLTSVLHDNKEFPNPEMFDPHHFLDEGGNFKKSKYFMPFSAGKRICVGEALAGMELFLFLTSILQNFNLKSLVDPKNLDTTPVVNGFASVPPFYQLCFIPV
T2 sequence (P08684 whole entry): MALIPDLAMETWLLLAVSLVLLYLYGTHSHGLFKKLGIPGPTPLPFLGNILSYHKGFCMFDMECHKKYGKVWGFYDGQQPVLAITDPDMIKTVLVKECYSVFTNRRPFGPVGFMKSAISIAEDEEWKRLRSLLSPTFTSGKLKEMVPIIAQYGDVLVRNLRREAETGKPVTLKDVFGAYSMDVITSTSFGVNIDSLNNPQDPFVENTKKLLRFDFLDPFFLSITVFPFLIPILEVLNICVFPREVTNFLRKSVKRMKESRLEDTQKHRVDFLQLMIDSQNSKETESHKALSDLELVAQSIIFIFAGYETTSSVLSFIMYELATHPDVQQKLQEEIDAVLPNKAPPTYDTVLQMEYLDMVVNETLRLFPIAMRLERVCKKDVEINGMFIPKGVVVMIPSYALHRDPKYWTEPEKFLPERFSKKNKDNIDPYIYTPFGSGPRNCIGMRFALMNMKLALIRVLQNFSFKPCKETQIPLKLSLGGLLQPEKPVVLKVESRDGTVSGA
T3 sequence (P10635 whole entry): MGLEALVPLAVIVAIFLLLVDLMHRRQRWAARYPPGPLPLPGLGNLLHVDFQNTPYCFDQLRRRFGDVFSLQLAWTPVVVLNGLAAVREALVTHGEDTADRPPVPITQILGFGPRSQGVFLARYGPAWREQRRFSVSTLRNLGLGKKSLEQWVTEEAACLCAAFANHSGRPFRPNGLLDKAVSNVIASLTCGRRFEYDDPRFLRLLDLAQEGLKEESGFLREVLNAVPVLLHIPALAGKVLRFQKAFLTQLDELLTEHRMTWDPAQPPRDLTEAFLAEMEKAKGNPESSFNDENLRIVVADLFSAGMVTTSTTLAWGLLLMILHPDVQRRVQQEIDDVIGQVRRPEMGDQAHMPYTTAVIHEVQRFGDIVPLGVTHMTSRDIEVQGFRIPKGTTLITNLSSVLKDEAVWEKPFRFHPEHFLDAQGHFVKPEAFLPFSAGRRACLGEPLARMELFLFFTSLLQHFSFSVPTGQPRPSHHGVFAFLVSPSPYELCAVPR

COc1ccc(CN2C3CC2CN(c2ccc(-c4cc(N5CC(C)(O)C5)cn5ncc(C#N)c45)cn2)C3)cn1 [SY-5007, 6-(3-hydroxy-3-methylazetidin-1-yl)-4-(6-(6-((6-methoxypyridin-3-yl)methyl)-3,6-diazabicyclo[3.1.1]heptan-3-yl)pyridin-3-yl)pyrazolo[1,5-a]pyridine-3-carbonitrile]
Cmax ([1]; 20 mg, Cycle 1 Day 28, 20 mg QD (n = 1), read-out: Cmax mean): 388 ng/mL
MRT inf ([1]; 20 mg, Cycle 1 Day 28, 20 mg QD (n = 1)): 7.7 h
half-life ([1]; 20 mg, Cycle 1 Day 28, 20 mg QD (n = 1), read-out: T1/2 mean (converted)): 6 h
Tmax ([1]; 20 mg, Cycle 1 Day 28, 20 mg QD (n = 1), read-out: Tmax mean): 1 h
AUC(0-t) [1, 7]: 5810 ng·h/mL
AUC(0-inf) ([1]; 40 mg, Cycle 1 Day 28, 40 mg BID (n = 3), read-out: AUCINF_obs mean): 7100 ng·h/mL
Cmax ([1]; 40 mg, Cycle 1 Day 28, 40 mg BID (n = 3), read-out: Cmax mean): 1280 ng/mL
MRT inf [1, 7]: 6.8 h
half-life ([1]; 40 mg, Cycle 1 Day 28, 40 mg BID (n = 3), read-out: T1/2 mean (converted)): 5 h
Tmax ([1]; 40 mg, Cycle 1 Day 28, 40 mg BID (n = 3), read-out: Tmax mean): 0.5 h
AUC(0-t) [1, 8]: 12600 ng·h/mL
AUC(0-inf) ([1]; 80 mg, Cycle 1 Day 28, 80 mg BID (n = 3), read-out: AUCINF_obs mean): 18800 ng·h/mL
Cmax ([1]; 80 mg, Cycle 1 Day 28, 80 mg BID (n = 3), read-out: Cmax mean): 1960 ng/mL
MRT inf [1, 8]: 8.2 h
half-life ([1]; 80 mg, Cycle 1 Day 28, 80 mg BID (n = 3), read-out: T1/2 mean (converted)): 5.5 h
Tmax ([1]; 80 mg, Cycle 1 Day 28, 80 mg BID (n = 3), read-out: Tmax mean): 1 h
AUC(0-t) [1, 9]: 21500 ng·h/mL
AUC(0-inf) ([1]; 120 mg, Cycle 1 Day 28, 120 mg BID (n = 3), read-out: AUCINF_obs mean): 34000 ng·h/mL
Cmax ([1]; 120 mg, Cycle 1 Day 28, 120 mg BID (n = 3), read-out: Cmax mean): 2870 ng/mL
MRT inf [1, 9]: 10.5 h
half-life ([1]; 120 mg, Cycle 1 Day 28, 120 mg BID (n = 3), read-out: T1/2 mean (converted)): 7 h
Tmax ([1]; 120 mg, Cycle 1 Day 28, 120 mg BID (n = 3), read-out: Tmax mean): 1 h
AUC(0-t) [1, 10]: 14900 ng·h/mL
AUC(0-inf) ([1]; 200 mg, Cycle 1 Day 1, 200 mg BID (n = 9), read-out: AUCINF_obs mean): 21600 ng·h/mL
Cmax ([1]; 200 mg, Cycle 1 Day 1, 200 mg BID (n = 9), read-out: Cmax mean): 3180 ng/mL
MRT inf [1, 10]: 15 h
half-life ([1]; 200 mg, Cycle 1 Day 1, 200 mg BID (n = 9), read-out: T1/2 mean (converted)): 23.9 h
Tmax ([1]; 200 mg, Cycle 1 Day 1, 200 mg BID (n = 9), read-out: Tmax mean): 1 h
AUC(0-inf) ([1]; single dose, 20 mg to 160 mg, read-out: AUCINF_obs range): 2410 to 21300 ng·h/mL
Cmax ([1]; single dose, 20 mg to 160 mg, read-out: Cmax range): 214 to 3470 ng/mL
half-life ([1]; single dose, read-out: Mean T1/2 across dose cohorts): 6.8 to 44.4 h
Tmax ([1]; single dose, read-out: Mean Tmax across dose cohorts): 0.5 to 4 h
pIC50 (TT cells (RET^C634W)): 8.04
pIC50 (NIH-3T3 cells): < 5.30
Respiratory effects (respiratory system): nor did it show any effects on the respiratory parameters
bioavailability ([2]; 2.5 mg/kg): 56.6%
bioavailability ([2]; 5 mg/kg): 74.1%
bioavailability ([2]; 10 mg/kg): 33.9%
AUC(0-inf) ([2]; gavage 2.5 mg/kg): 3760 ng·h/mL
Cmax ([2]; gavage 2.5 mg/kg): 758 ng/mL
AUC(0-inf) ([2]; gavage 5 mg/kg): 9850 ng·h/mL
Cmax ([2]; gavage 5 mg/kg): 1630 ng/mL
AUC(0-inf) ([2]; gavage 10 mg/kg): 9030 ng·h/mL
Cmax ([2]; gavage 10 mg/kg): 1440 ng/mL
Tmax ([2]; gavage 2.5, 5, 10 mg/kg): 0.5 to 2 h
half-life ([2]; gavage 2.5-10 mg/kg): 4.81 to 7.53 h
MRT inf ([2]; gavage 2.5-10 mg/kg, read-out: MRTINF_obs): 5.75 to 11.4 h
fraction unbound [3]: 0.034
fraction unbound [4]: 0.042
pIC50 (CYP2C9): 5.18
pIC50 (CYP3A4): 4.74
pIC50 (CYP2D6): < 4.60
MTD ([5]; female, females): 500 mg/kg
MTD ([5]; male, males): 250 mg/kg
Kidney: urea (SD rats): elevated urea
Chromosome aberration test result [6]: negative
